Test results published in patent US20240294531A1, “COVALENT HETEROCYCLES AND USES THEREOF” (Kumquat Biosciences Inc., priority 2022, published 2024).

Experiments:
BTK wildtype protein = BTK wildtype protein (Homo sapiens (Human), UniProt Q06187); assay: BTK wildtype HTRF displacement assay; format: binding; conditions: 1-hour incubation; read-out: BTK (wt) IC50
Procedure, shortened: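 Full-length N-terminal GST-tagged BTK incubated 1 h at room temperature with compound (6 doses, four-fold dilutions from 5 μM top) plus kinase tracer 239 and anti-GST-Tb antibody. Tracer displacement read as TR-FRET 665/620 ratio, background-subtracted using no-protein control. IC50 from four-parameter fit constrained 0–100% inhibition.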

BTK C481S protein = BTK C481S protein (Homo sapiens (Human), UniProt Q06187, C481S); assay: BTK C481S HTRF displacement assay; format: binding; conditions: 1-hour incubation
Chain of BTK C481S protein (Q06187 2-659 C481S): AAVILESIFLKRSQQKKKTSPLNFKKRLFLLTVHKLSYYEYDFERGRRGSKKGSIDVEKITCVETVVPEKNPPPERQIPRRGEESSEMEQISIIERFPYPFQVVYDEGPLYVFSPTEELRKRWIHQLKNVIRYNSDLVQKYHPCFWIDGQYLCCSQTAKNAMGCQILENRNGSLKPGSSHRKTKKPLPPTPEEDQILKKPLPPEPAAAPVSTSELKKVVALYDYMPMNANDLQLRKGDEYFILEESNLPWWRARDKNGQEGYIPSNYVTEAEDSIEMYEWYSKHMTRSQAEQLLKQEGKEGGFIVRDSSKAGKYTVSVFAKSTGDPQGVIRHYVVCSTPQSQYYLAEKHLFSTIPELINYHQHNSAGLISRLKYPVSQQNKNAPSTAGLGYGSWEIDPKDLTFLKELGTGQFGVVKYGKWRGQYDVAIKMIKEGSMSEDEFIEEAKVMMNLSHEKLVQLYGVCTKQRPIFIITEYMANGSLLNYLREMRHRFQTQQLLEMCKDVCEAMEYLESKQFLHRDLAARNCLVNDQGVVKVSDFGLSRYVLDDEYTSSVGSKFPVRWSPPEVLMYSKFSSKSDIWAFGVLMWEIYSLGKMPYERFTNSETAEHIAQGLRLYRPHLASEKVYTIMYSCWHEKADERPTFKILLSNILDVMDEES
Procedure, shortened: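 N-terminal GST-tagged BTK C481S (2-659) incubated 1 hour at room temperature with compound (6 doses, four-fold from 5 μM), 50 nM kinase tracer 239 and anti-GST-Tb antibody. TR-FRET 665/620 ratio, background-subtracted; IC50 from constrained four-parameter fit. KI=IC50/(1+[Tracer]/Kd), tracer Kd 54 nM.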

Chain of BTK wildtype protein (Q06187 2-659): as the sequence (Q06187 2-659 C481S) above, with S480C counted along it

SMILES	IC50 (BTK wildtype protein) [µM]	IC50 (BTK C481S protein) [µM]
Cc1[nH]c2c(C(N)=O)cc(F)c(N3CCC(N(C)C(=O)n4cncn4)C3)c2c1C (stereo not drawn) [Compound 128, 5-fluoro-2,3-dimethyl-4-(3-(N-methyl-1H-1,2,4-triazole-1-carboxamido)pyrrolidin-1-yl)-1H-indole-7-carboxamide]	≤ 1	≤ 1
NC(=O)c1c(-c2ccc(Oc3ccccc3)cc2)nn2c1NCC[C@H]2[C@@H]1CCCCN1C(=O)n1cncn1 [Compound 223, (S)-7-((S)-1-(1H-1,2,4-triazole-1-carbonyl)piperidin-2-yl)-2-(4-phenoxyphenyl)-4,5,6,7-tetrahydropyrazolo[1,5-a] pyrimidine-3-carboxamide]	> 1	> 1
COc1ccc(F)cc1C(=O)NCc1ccc(-c2nn(C(C)CN(C(=O)n3cncn3)C3CC3)c3ncnc(N)c23)cc1 (stereo not drawn) [Compound 230, N-(2-(4-amino-3-(4-((5-fluoro-2-methoxybenzamido)methyl)phenyl)-1H-pyrazolo[3,4-d]pyrimidin-1-yl)propyl)-N-cyclopropyl-1H-1,2,4-triazole-1-carboxamide]	> 1	≤ 1
CCN(C(=O)n1cncn1)C1CCCC(n2nc(-c3ccc(Oc4ccccc4)cc3)c3c(N)ncnc32)C1 (stereo not drawn) [Compound 109, N-(3-(4-amino-3-(4-phenoxyphenyl)-1H-pyrazolo[3,4-d]pyrimidin-1-yl)cyclohexyl)-N-ethyl-1H-1,2,4-triazole-1-carboxamide]	≤ 1	≤ 1
CC1(C)CC(n2nc(-c3ccc(Oc4ccccc4)cc3)c3c(N)ncnc32)CCN1C(=O)n1cncn1 (stereo not drawn) [Compound 148, (4-(4-amino-3-(4-phenoxyphenyl)-1H-pyrazolo[3,4-d]pyrimidin-1-yl)-2,2-dimethylpiperidin-1-yl)(1H-1,2,4-triazol-1-yl)methanone]	≤ 1	≤ 1
COc1ccc(F)cc1C(=O)NCc1ccc(-c2nn(CC(N(C)C(=O)n3cncn3)C(F)(F)F)c(N)c2C(N)=O)cc1 (stereo not drawn) [Compound 186, N-(3-(5-amino-4-carbamoyl-3-(4-((5-fluoro-2-methoxybenzamido)methyl)phenyl)-1H-pyrazol-1-yl)-1,1,1-trifluoropropan-2-yl)-N-methyl-1H-1,2,4-triazole-1-carboxamide]	≤ 1	≤ 1
CN(CC1CNc2c(C(N)=O)c(-c3ccc(Oc4ccccc4)cc3)nn2C1)C(=O)n1cncn1 (stereo not drawn) [Compound 149, 6-((N-methyl-1H-1,2,4-triazole-1-carboxamido)methyl)-2-(4-phenoxyphenyl)-4,5,6,7-tetrahydropyrazolo[1,5-a] pyrimidine-3-carboxamide]	> 1	> 1
COc1ccc(F)cc1C(=O)NCc1ccc(-c2nn(C[C@H]3C[C@@H](C)CCN3C(=O)n3cnnc3)c(N)c2C(N)=O)cc1 [Compound 212, 5-amino-3-(4-((5-fluoro-2-methoxybenzamido)methyl)phenyl)-1-(((2R,4S)-4-methyl-1-(4H-1,2,4-triazole-4-carbonyl)piperidin-2-yl)methyl)-1H-pyrazole-4-carboxamide]	≤ 1	≤ 1
COc1ccc(C)cc1C(=O)NCc1ccc(-c2nn(C3CCCC(N(C)C(=O)n4cncn4)C3)c3ncnc(N)c23)cc1 (stereo not drawn) [Compound 215, N-(3-(4-amino-3-(4-((2-methoxy-5-methylbenzamido)methyl)phenyl)-1H-pyrazolo[3,4-d]pyrimidin-1-yl)cyclohexyl)-N-methyl-1H-1,2,4-triazole-1-carboxamide]	≤ 1	≤ 1
COc1ccc(F)cc1C(=O)NCc1ccc(-c2nn(C(CN(C(=O)n3cncn3)C3CC3)C3CC3)c3ncnc(N)c23)cc1 (stereo not drawn) [Compound 231, N-(2-(4-amino-3-(4-((5-fluoro-2-methoxybenzamido)methyl)phenyl)-1H-pyrazolo[3,4-d]pyrimidin-1-yl)-2-cyclopropyl-ethyl)-N-cyclopropyl-1H-1,2,4-triazole-1-carboxamide]	> 1	> 1
CC(C1CCNc2c(C(N)=O)c(-c3ccc(Oc4ccccc4)cc3)nn21)N(C)C(=O)n1cncn1 (stereo not drawn) [Compound 205, 7-(1-(N-methyl-1H-1,2,4-triazole-1-carboxamido)ethyl)-2-(4-phenoxy-phenyl)-4,5,6,7-tetrahydro-pyrazolo[1,5-a]pyrimidine-3-carboxamide]	≤ 1	≤ 1
COc1ccc(F)cc1C(=O)NCc1ccc(-c2nn(-c3cccc(CN(C)C(=O)n4cncn4)c3)c3ncnc(N)c23)cc1 [Compound 191, N-(3-(4-amino-3-(4-((5-fluoro-2-methoxybenzamido)methyl)phenyl)-1H-pyrazolo[3,4-d]pyrimidin-1-yl)benzyl)-N-methyl-1H-1,2,4-triazole-1-carboxamide]	≤ 1	≤ 1
NC(=O)c1c(-c2ccc(Oc3ccccc3)cc2)nn(C[C@@H]2CCCCN2C(=O)n2cncn2)c1N [Compound 184, (S)-1-((1-(1H-1,2,4-triazole-1-carbonyl)piperidin-2-yl)methyl)-5-amino-3-(4-phenoxyphenyl)-1H-pyrazole-4-carboxamide]	≤ 1	≤ 1
COc1ccc(F)cc1C(=O)NCc1ccc(-c2nn(C[C@H]3CCCC[C@@H]3CN(C)C(=O)n3cncn3)c3ncnc(N)c23)cc1 [Compound 193, N-(((1S,2S)-2-((4-amino-3-(4-((5-fluoro-2-methoxybenzamido)methyl)phenyl)-1H-pyrazolo [3,4-d]pyrimidin-1-yl)methyl)cyclohexyl)methyl)-N-methyl-1H-1,2,4-triazole-1-carboxamide]	≤ 1	≤ 1
COc1ccc(F)cc1C(=O)NCc1ccc(-c2nn(C(CC3CCC3)CN(C)C(=O)n3cncn3)c3ncnc(N)c23)cc1 (stereo not drawn) [Compound 139, N-(2-(4-amino-3-(4-((5-fluoro-2-methoxybenzamido)methyl)phenyl)-1H-pyrazolo[3,4-d]pyrimidin-1-yl)-3-cyclobutylpropyl)-N-methyl-1H-1,2,4-triazole-1-carboxamide]	> 1	> 1
COc1ccc(F)cc1C(=O)NCc1ccc(-c2nn(CC3CCN3C(=O)n3cncn3)c(N)c2C(N)=O)cc1 (stereo not drawn) [Compound 145, 1-((1-(1H-1,2,4-triazole-1-carbonyl)azetidin-2-yl)methyl)-5-amino-3-(4-((5-fluoro-2-methoxybenzamido)methyl)phenyl)-1H-pyrazole-4-carboxamide]	≤ 1	≤ 1

Continued, values first:

IC50 (BTK wildtype protein) [µM]	IC50 (BTK C481S protein) [µM]	SMILES
≤ 1	≤ 1	NC(=O)c1c(-c2ccc(Oc3ccccc3)cc2)nn2c1NCC[C@H]2[C@H]1CCCCN1C(=O)n1cncn1 [Compound 266, (S)-7-((R)-1-(1H-1,2,4-triazole-1-carbonyl)piperidin-2-yl)-2-(4-phenoxyphenyl)-4,5,6,7-tetrahydropyrazolo[1,5-a] pyrimidine-3-carboxamide]
≤ 1	≤ 1	COc1ccc(F)cc1C(=O)NCc1ccc(-c2nn(C(C)C3CCCCN3C(=O)n3cncn3)c3ncnc(N)c23)cc1 (stereo not drawn) [Compound 304, N-(4-(1-(1-(1-(1H-1,2,4-triazole-1-carbonyl)piperidin-2-yl)ethyl)-4-amino-1H-pyrazolo[3,4-d]pyrimidin-3-yl)benzyl)-5-fluoro-2-methoxybenzamide]
> 1	> 1	COc1ccc(F)cc1C(=O)NCc1ccc(-c2nn(CC3C(C)CCCN3C(=O)n3cncn3)c3ncnc(N)c23)cc1 (stereo not drawn) [Compound 271, N-(4-(4-amino-1-((3-methyl-1-(1H-1,2,4-triazole-1-carbonyl)piperidin-2-yl)methyl)-1H-pyrazolo[3,4-d]pyrimidin-3-yl)benzyl)-5-fluoro-2-methoxybenzamide]
≤ 1	≤ 1	COc1ccc(F)cc1C(=O)NCc1ccc(-c2nn([C@H]3CC[C@H](N(C)C(=O)n4cncn4)C3)c3ncnc(N)c23)cc1 [Compound 312, N-((1S,3S)-3-(4-amino-3-(4-((5-fluoro-2-methoxybenzamido)methyl)phenyl)-1H-pyrazolo [3,4-d]pyrimidin-1-yl)cyclopentyl)-N-methyl-1H-1,2,4-triazole-1-carboxamide]
> 1	> 1	COc1ccc(F)cc1C(=O)NCc1ccc(-c2nn(C(CN(C)C(=O)n3cncn3)c3ccccc3)c3ncnc(N)c23)cc1 (stereo not drawn) [Compound 243, N-(2-(4-amino-3-(4-((5-fluoro-2-methoxybenzamido)methyl)phenyl)-1H-pyrazolo[3,4-d]pyrimidin-1-yl)-2-phenylethyl)-N-methl-1H-1,2,4-triazole-1-carboxamide]
> 1	> 1	COC[C@@H](C1CCNc2c(C(N)=O)c(-c3ccc(Oc4ccccc4)cc3)nn21)N(C)C(=O)n1cncn1 (stereo partly drawn) [Compound 285, 7-((R)-2-methoxy-1-(N-methyl-1H-1,2,4-triazole-1-carboxamido)ethyl)-2-(4-phenoxyphenyl)-4,5,6,7-tetrahydropyrazolo [1,5-a]pyrimidine-3-carboxamide]
> 1	> 1	NC(=O)c1nn2c(C3CCCCN3C(=O)n3cncn3)ccnc2c1-c1ccc(Oc2ccccc2)cc1 (stereo not drawn) [Compound 277, 7-(1-(1H-1,2,4-triazole-1-carbonyl)piperidin-2-yl)-3-(4-phenoxy-phenyl)pyrazolo[1,5-a]pyrimidine-2-carboxamide]
> 1	> 1	COc1ccc(F)cc1C(=O)NCc1ccc(-c2nn(CC3CN(C(C)=O)CCN3C(=O)n3cncn3)c3ncnc(N)c23)cc1 (stereo not drawn) [Compound 313, N-(4-(1-((4-acetyl-1-(1H-1,2,4-triazole-1-carbonyl)piperazin-2-yl)methyl)-4-amino-1H-pyrazolo[3,4-d]pyrimidin-3-yl)benzyl)-5-fluoro-2-methoxybenzamide]
